{"source": "patent US20250230193A1", "about": "“CYCLIC COMPOUND HAVING SELECTIVE KRAS INHIBITORY EFFECT ON HRAS AND NRAS” (CHUGAI SEIYAKU KABUSHIKI KAISHA, priority 2022, published 2025)", "key": {"[1]": {"target": "GDP-bound NRAS wild-type protein (Homo sapiens, UniProt P01111)", "sequence (P01111 whole entry)": "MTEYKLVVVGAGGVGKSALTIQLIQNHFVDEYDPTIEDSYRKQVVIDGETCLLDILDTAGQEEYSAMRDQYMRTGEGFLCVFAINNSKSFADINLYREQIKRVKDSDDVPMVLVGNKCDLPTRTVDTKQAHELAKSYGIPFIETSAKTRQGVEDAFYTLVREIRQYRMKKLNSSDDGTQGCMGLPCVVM", "assay": "Binding to NRAS by surface plasmon resonance (SPR), Single Cycle Kinetics"}, "[2]": {"target": "GDP-bound HRAS wild-type protein (Homo sapiens, UniProt P01112)", "sequence (P01112 whole entry)": "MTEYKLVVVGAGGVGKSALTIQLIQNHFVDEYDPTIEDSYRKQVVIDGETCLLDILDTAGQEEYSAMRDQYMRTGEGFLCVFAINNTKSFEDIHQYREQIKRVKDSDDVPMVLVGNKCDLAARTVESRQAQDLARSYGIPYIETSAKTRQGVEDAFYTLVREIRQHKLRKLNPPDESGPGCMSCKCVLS", "assay": "Binding to HRAS by surface plasmon resonance (SPR), Single Cycle Kinetics"}, "[3]": {"conditions": "KD ratio, GDP-bound NRAS wild-type vs GDP-bound KRAS wild-type, SPR"}, "[4]": {"conditions": "KD ratio, GDP-bound HRAS wild-type vs GDP-bound KRAS wild-type, SPR"}, "[5]": {"conditions": "SPR, GDP-bound NRAS wild-type vs GDP-bound KRAS wild-type"}, "[6]": {"conditions": "SPR, GDP-bound HRAS wild-type vs GDP-bound KRAS wild-type"}}}
{"smiles": "CC[C@H](C)[C@@H]1NC(=O)[C@H](CC(C)C)N(C)C(=O)C[C@@H](C(=O)N2CCOCC2)N(C)C(=O)[C@H](C2CCCC2)N(C)C(=O)C2(CCC2)NC(=O)[C@@H]2C[C@@H](OCC(C)C)CN2C(=O)[C@H](CCc2cc(F)c(C(F)(F)F)c(F)c2)NC(=O)CN(C)C(=O)[C@H](Cc2ccc(C(F)(F)F)cc2)N2CCCC[C@@H](C2=O)N(C)C(=O)CN(C)C1=O", "note": "[PP1160]", "values": [{"measurement": "NRAS/KRAS (ratio of KD value with respect to NRAS to KD value with respect to KRAS)", "setting": "[1]; [3]", "value": "B (a compound having 3 or more and less than 10 is denoted as B)"}, {"measurement": "HRAS/KRAS (ratio of KD value with respect to HRAS to KD value with respect to KRAS)", "setting": "[2]; [4]", "value": "B (a compound having 3 or more and less than 10 is denoted as B)"}]}
{"smiles": "CCC(CC)[C@H]1C(=O)N(C)[C@H](C(=O)N(C)C)CC(=O)N(C)[C@@H](COC)C(=O)N[C@@H]([C@@H](C)CC)C(=O)N(C)CC(=O)N(C)[C@H]2C/C=C\\CCN(C2=O)[C@@H](Cc2ccc(C(F)(F)F)cc2)C(=O)N(C)CC(=O)N[C@@H](CCc2cc(F)c(C(F)(F)F)c(F)c2)C(=O)N2CCCC[C@H]2C(=O)NC2(CC(C)(C)C2)C(=O)N1C", "note": "[PP2916]", "values": [{"measurement": "NRAS/KRAS (ratio of KD value with respect to GDP-bound NRAS wild-type protein to KD value with respect to KRAS)", "setting": "[1]; class symbols", "value": "A (a compound having 10 or more and less than 20 is denoted as A)"}, {"measurement": "HRAS/KRAS (ratio of KD value with respect to GDP-bound HRAS wild-type protein to KD value with respect to KRAS)", "setting": "[2]; class symbols", "value": "A (a compound having 10 or more and less than 20 is denoted as A)"}]}
{"smiles": "CCO[C@@H]1C[C@H]2C(=O)NC3(CCC3)C(=O)N(C)[C@@H](C3CCCC3)C(=O)N(C)[C@H](C(=O)N3CCOCC3)CC(=O)N(CC)[C@@H](CC(C)C)C(=O)N[C@@H]([C@@H](C)CC)C(=O)N(C)CC(=O)N(C)[C@H]3CC(C)=CCN(C3=O)[C@@H](Cc3ccc(C(F)(F)F)cc3)C(=O)N(C)CC(=O)N[C@@H](CCc3cc(F)c(C(F)(F)F)c(F)c3)C(=O)N2C1", "note": "[PP1044]", "values": [{"measurement": "NRAS/KRAS (ratio of KD value with respect to NRAS to KD value with respect to KRAS)", "setting": "[1]; [3]", "value": "C (A compound having a KD ratio of 0.1 or more and less than 3 is denoted as C)"}, {"measurement": "HRAS/KRAS (ratio of KD value with respect to HRAS to KD value with respect to KRAS)", "setting": "[2]; [4]", "value": "C (A compound having a KD ratio of 0.1 or more and less than 3 is denoted as C)"}]}
{"smiles": "CC[C@H](C)[C@@H]1NC(=O)[C@H](C2CC2)N(C)C(=O)C[C@@H](C(=O)N(C)CC)N(C)C(=O)[C@H](C2CCCC2)N(C)C(=O)C2(CCC2)NC(=O)[C@@H]2C[C@H](C)CN2C(=O)[C@H](CCc2cc(F)c(C(F)(F)F)c(F)c2)NC(=O)CN(C)C(=O)[C@H](Cc2ccc(C(F)(F)F)cc2)N2CC/C=C\\C[C@@H](C2=O)N(C)C(=O)CN(C)C1=O", "note": "[PP2080]", "values": [{"measurement": "NRAS/KRAS (ratio of KD value with respect to NRAS to KD value with respect to KRAS)", "setting": "[1]; [5]", "value": "A (a compound having 10 or more and less than 20 is denoted as A)"}, {"measurement": "HRAS/KRAS (ratio of KD value with respect to HRAS to KD value with respect to KRAS)", "setting": "[2]; [6]", "value": "A (a compound having 10 or more and less than 20 is denoted as A)"}]}
{"smiles": "CCC[C@H]1C(=O)N[C@@H]([C@@H](C)CC)C(=O)N(CCC)CC(=O)N(C)[C@H]2C/C=C\\CCN(C2=O)[C@@H](Cc2ccc(C(F)(F)F)cc2)C(=O)N(C)CC(=O)N[C@@H](CCc2cc(F)c(C(F)(F)F)c(F)c2)C(=O)N2C[C@H](OCC)C[C@H]2C(=O)NC2(CCC2)C(=O)N(C)[C@@H](C2CCCC2)C(=O)N(C)[C@H](C(=O)N(C)C)CC(=O)N1C", "note": "[PP1767]", "values": [{"measurement": "NRAS/KRAS (ratio of KD value for NRAS to KD value for KRAS)", "setting": "[1]; [3]", "value": "A (a compound having 10 or more and less than 20 is denoted as A)"}, {"measurement": "HRAS/KRAS (ratio of KD value for HRAS to KD value for KRAS)", "setting": "[2]; [4]", "value": "B (a compound having 3 or more and less than 10 is denoted as B)"}]}
{"smiles": "CCO[C@@H]1C[C@H]2C(=O)NC3(CCC3)C(=O)N(C)[C@@H](C3CCCC3)C(=O)N(C)[C@H](C(=O)N3CCOCC3)CC(=O)N(C)[C@@H](CC3CCCC3)C(=O)N[C@@H]([C@@H](C)CC)C(=O)N(C)CC(=O)N(C)[C@H]3CCCCN(C3=O)[C@@H](Cc3ccc(C(F)(F)F)cc3)C(=O)N(C)CC(=O)N[C@@H](CCc3cc(F)c(C(F)(F)F)c(F)c3)C(=O)N2C1", "note": "[PP0715]", "values": [{"measurement": "NRAS/KRAS (ratio of KD value with respect to GDP-bound NRAS wild-type protein to KD value with respect to KRAS)", "setting": "[1]; SPR", "value": "C (A compound having a KD ratio of 0.1 or more and less than 3 is denoted as C)"}, {"measurement": "HRAS/KRAS (ratio of KD value with respect to GDP-bound HRAS wild-type protein to KD value with respect to KRAS)", "setting": "[2]; SPR", "value": "B (a compound having 3 or more and less than 10 is denoted as B)"}]}
{"smiles": "CC[C@H](C)[C@@H]1NC(=O)[C@H](COC)N(C)C(=O)C[C@@H](C(=O)N(C)C)N(C)C(=O)[C@H](C2CCCC2)N(C)C(=O)C2(CC(C)(C)C2)NC(=O)[C@@H]2C[C@H](C)CN2C(=O)[C@H](CCc2ccc(C(F)(F)F)c(OC)c2)NC(=O)CN(C)C(=O)[C@H](Cc2ccc(C)cc2)N2CC/C=C\\C[C@@H](C2=O)N(C)C(=O)[C@@H]2C[C@H](OC)CN2C1=O", "note": "[PP2390]", "values": [{"measurement": "NRAS/KRAS (ratio of KD value with respect to NRAS to KD value with respect to KRAS)", "setting": "[1]; [5]", "value": "A (a compound having 10 or more and less than 20 is denoted as A)"}, {"measurement": "HRAS/KRAS (ratio of KD value with respect to HRAS to KD value with respect to KRAS)", "setting": "[2]; [6]", "value": "B (a compound having 3 or more and less than 10 is denoted as B)"}]}
